Measurements from patent publication US20180184644A1, “CELL STABILIZATION” (Biomatrica, Inc., priority 2013, published 2018).
“Also recorded” adds a separate entry of the source.

Key:
[1] = test system: human neonatal fibroblasts; test: Cell viability by ATP content of substantially dry stored human neonatal fibroblasts; format: cell-based; design: % CELL VIABILITY 24 hr / % CELL VIABILITY 48 hr / % CELL VIABILITY 120 hr: concentration or dose not given beside the values; conditions: for % CELL VIABILITY 24 hr / % CELL VIABILITY 48 hr / % CELL VIABILITY 120 hr: inhibitor in predehydration and rehydration formulation; for % CELL VIABILITY 24 hr: MCS dehydration formulation 41, dry stored 24 hr at ambient temperature; for % CELL VIABILITY 48 hr: MCS dehydration formulation 41, dry stored 48 hr at ambient temperature; for % CELL VIABILITY 120 hr: MCS dehydration formulation 41, dry stored 120 hr at ambient temperature
Description: ATP content may be determined using a Cell Titer-Glo Luminescent Cell viability Assay (Promega) in accordance with the manufacturer's instructions. The addition of the Cell Titer-Glo Luminescent reagent into the cells generates a luminescent signal proportional to the amount of intracellular ATP. The amount of ATP is directly proportional to the number of cells present in culture, and it is then a homogeneous method of determining the number of viable (metabolically active) cells in the rehydrated cell preparation.
Briefly, human neonatal fibroblasts were suspended in Cascade Media 106 and seeded as 100 ul cultures at a densities of 100-5000 cells per test in 96 well plates and incubated in an environment of ambient atmosphere while maintaining an elevated CO2 level (5%-10%) and temperature of 37 C with relative humidity of 85-95%. The culture is adjusted to specific composition of predehydration formulations and media specified concentration of each apoptosis inhibitor. The cells were incubated for a period of at least one hour but not more than 3 hours hr at 37° C. The predehydration formulation was thoroughly removed and 10-15 ul of MCS dehydration formulation 41 (Table 1) was added to each well. The cells were substantially air dried at 37 C, 5% CO2, 20% relative humidity over a period of 90 minutes, stored at ambient temperature for a period of 24, 48 or 120 hours. At the appropriate time, the substantially dry stored cells were rehydrated by treating with a rehydration formulation comprising the same concentration of apoptosis inhibitor in 100-200 μl of predehydration formulation. Cell viability was determined by measuring ATP content as described herein.

HeLa cells = test: Cell viability by Trypan Blue method of substantially dry stored HeLa cells; format: cell-based
Protocol: Cell viability may be measured using a Trypan Blue staining procedure. […] Cell counting was performed in 9 mm KOVA glass slides 10 with Grid Chambers (Hycor) in triplicate under a Leitz Fluovert microscope. The percentage of cell survival is reported relative to untreated control cells. Briefly, HeLa cells were substantially dry stored using predetermined predehydration formulations (SC1, salubrinal and SC3, MLS-0315763) and a subset of the dehydration formulations set forth in Table 1 for a period of seven hours and then rehydrated using the rehydration formulations listed below (RC1, salubrinal and RC3, MLS-0315763). Cell viability was assessed seven days after rehydration using the Trypan Blue method. The results are shown in Table 3 and FIG. 3A and FIG. 3B.

Mammalian cells = conditions: trehalose-loaded dried cells stored for even few minutes; cited from earlier work

C[S+]([O-])CCCCN=C=S [L-sulphurophane]
% CELL VIABILITY 24 hr [1]: 98.8% | % CELL VIABILITY 48 hr [1]: 65.3% | % CELL VIABILITY 120 hr [1]: 50.9%

O=c1cc(N2CCOCC2)oc2c(-c3ccccc3)cccc12 [LY294002, 2-(4-morpholinyl)-8-phenyl-4H-1-benzopyran-4-one]
% CELL VIABILITY 24 hr [1]: 83.8% | % CELL VIABILITY 48 hr [1]: 85.9% | % CELL VIABILITY 120 hr [1]: 98.7%

O=C(NOC[C@H](O)CO)c1ccc(F)c(F)c1Nc1ccc(I)cc1F [PD032591, N-[(2R)-2,3-dihydroxypropoxy]-3,4-difluoro-2-[(2-fluoro-4-iodophenyl)amino]-benzamide]
% CELL VIABILITY 24 hr [1]: 100.0% | % CELL VIABILITY 48 hr [1]: 85.1% | % CELL VIABILITY 120 hr [1]: 95.7%

CO[C@H]1C[C@@H]2CC[C@@H](C)[C@@](O)(O2)C(=O)C(=O)N2CCCC[C@H]2C(=O)O[C@H]([C@H](C)C[C@@H]2CC[C@@H](O)[C@H](OC)C2)CC(=O)[C@H](C)/C=C(\C)[C@@H](O)[C@@H](OC)C(=O)[C@H](C)C[C@H](C)/C=C/C=C/C=C/1C [Rapamycin]
% CELL VIABILITY 24 hr [1]: 88.4% | % CELL VIABILITY 48 hr [1]: 73.2% | % CELL VIABILITY 120 hr [1]: 90.0%

O=C(/C=C/c1ccccc1)NC(NC(=S)Nc1cccc2cccnc12)C(Cl)(Cl)Cl (stereo not shown) [Salubrinal]
% CELL VIABILITY 24 hr [1]: 100.0% | % CELL VIABILITY 48 hr [1]: 72.9% | % CELL VIABILITY 120 hr [1]: 109.5%

OC[C@H]1O[C@H](O[C@H]2O[C@H](CO)[C@@H](O)[C@H](O)[C@H]2O)[C@H](O)[C@@H](O)[C@@H]1O [Trehalose]
viable cells (in words) ([1]; by 24 hr of dry storage): little to no viable cells | % CELL VIABILITY 24 hr [1]: 7.5% | % CELL VIABILITY 48 hr [1]: 0.0% | % CELL VIABILITY 120 hr [1]: 0.0% | surviving / viable cells (in words) (HeLa cells; HeLa cells, 7 hours dry storage, 7 days after rehydration): did not yield in any viable cells; also recorded: did not yield any surviving cells | % HeLa Cell Viability (HeLa cells; dry stored seven hours, Trypan Blue seven days after rehydration): 0% | cell survival after dry storage (in words) (Mammalian cells): complete cell death
